# Source: patent US12428406B2 (PMV Pharmaceuticals, Inc., priority 2019, dated 2025)
# Biological target: T1, p53 Y220C (Homo sapiens, UniProt P04637, Y220C)
# T1 construct: The recombinant protein was a truncation mutant containing only amino acids 94-312 of p53; made in house; host or cells: E. coli
# Assay: In vitro DNA binding activity assay (HTRF / TR-FRET): stabilization of p53 Y220C and increase of its DNA binding activity
# Format: biochemical
# Conditions: recombinant His-tagged p53 Y220C DNA binding domain (aa 94-312), biotin-labeled consensus DNA, incubated at 27° C. or 29° C. for 60 min
# How it was run: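 Stabilization of the mutant is inferred from increased binding of His-tagged p53 Y220C to a biotin-labeled consensus DNA, detected by HTRF with europium-streptavidin and APC-anti-His antibody. The concentration giving a 50% rise over compound-free binding is reported as SC150.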
# T1 sequence (P04637 94-312, change not shown): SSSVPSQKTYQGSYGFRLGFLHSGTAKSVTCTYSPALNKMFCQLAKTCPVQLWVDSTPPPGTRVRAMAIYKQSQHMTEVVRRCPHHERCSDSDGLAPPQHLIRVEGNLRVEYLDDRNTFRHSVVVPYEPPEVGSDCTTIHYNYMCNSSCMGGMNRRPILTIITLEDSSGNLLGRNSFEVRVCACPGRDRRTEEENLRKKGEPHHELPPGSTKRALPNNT
row,SMILES,SC150 (concentration of the compound required to increase the DNA binding activity by 50%)
1,"COc1cc(S(=O)(=O)N2CCOCC2)ccc1NCC#Cc1cc2c(NC3CCN(C(C)=O)CC3)cccc2n1CC(F)(F)F [Compound 758A, 1-(4-{1[2-(3-{1[2-methoxy-4-(morpholine-4-sulfonyl)phenyl]amino}prop-1-yn-1-yl)-1-(2,2,2-trifluoroethyl)-1H-indol-4-yl]amino}piperidin-1-yl)ethan-1-one]",+ (+ = 0 μM ≤ SC150 < 0.05 μM)
2,"CCOC(=O)c1ccc(NCC#Cc2cc3c(N[C@H]4CCN(C(C)C)C[C@H]4F)cccc3n2CC(F)(F)F)c(OC)c1 (racemic) [Compound 797A, ethyl 4-((3-(4-(((3R,4S)-3-fluoro-1-isopropylpiperidin-4-yl)amino)-1-(2,2,2-trifluoroethyl)-1H-indol-2-yl)prop-2-yn-1-yl)amino)-3-methoxybenzoate]",+ (+ = 0 μM ≤ SC150 < 0.05 μM)
3,"COCC(O)CN1CCC(Nc2cccc3c2cc(C#CCNc2ccc(S(C)(=O)=O)cc2O)n3CC(F)(F)F)CC1 (stereo not shown) [Compound 621A, 2-{[3-(4-{[1-(2-hydroxy-3-methoxypropyl)piperidin-4-yl]amino}-1-(2,2,2-trifluoroethyl)-1H-indol-2-yl)prop-2-yn-1-yl]amino}-5-methanesulfonylphenol]",+ (+ = 0 μM ≤ SC150 < 0.05 μM)
4,"COCC(O)CN1CCC(Nc2cccc3c2cc(C#CCNc2cc(S(C)(=O)=O)ccc2OC)n3CC(F)(F)F)CC1 (stereo not shown) [Compound 670A, 1-{4-[(2-{3-[(5-methanesulfonyl-2-methoxyphenyl)amino]prop-1-yn-1-yl}-1-(2,2,2-trifluoroethyl)-1H-indol-4-yl)amino]piperidin-1-yl}-3-methoxypropan-2-ol]",++++ (++++ = 0.2 μM ≤ SC150 < 1 μM)
5,"COc1cc(S(C)(=O)=O)ccc1NCC#Cc1cc2c(NC(=O)NC3CCN(CC(N)=O)CC3)cccc2n1CC(F)(F)F [Compound 16A, 2-(4-{[(2-{3-[(4-methanesulfonyl-2-methoxyphenyl)amino]prop-1-yn-1-yl}-1-(2,2,2-trifluoroethyl)-1H-indol-4-yl)carbamoyl]amino}piperidin-1-yl)acetamide]",++++ (++++ = 0.2 μM ≤ SC150 < 1 μM)
6,"COc1cc(C(=O)O)ccc1NCC#Cc1cc2c(N[C@@H]3CCN(CC(=O)O)C[C@@H]3F)cccc2n1CC(F)(F)F [Compound 934A, 4-{[3-(4-{[(3S,4R)-1-(carboxymethyl)-3-fluoropiperidin-4-yl]amino}-1-(2,2,2-trifluoroethyl)-1H-indol-2-yl)prop-2-yn-1-yl]amino}-3-methoxybenzoic acid]",+ (+ = 0 μM ≤ SC150 < 0.05 μM)
7,"COc1cc(C(=O)NCCS(C)(=O)=O)ccc1NCC#Cc1cc2c(N[C@@H]3CCN(C)C[C@@H]3F)cccc2n1CC(F)(F)F [Compound 969A, 4-{[3-(4-{[(3S,4R)-3-fluoro-1-methylpiperidin-4-yl]amino}-1-(2,2,2-trifluoroethyl)-1H-indol-2-yl)prop-2-yn-1-yl]amino}-N-(2-methanesulfonylethyl)-3-methoxybenzamide]",+ (+ = 0 μM ≤ SC150 < 0.05 μM)
8,"COc1cc(S(N)(=O)=O)ccc1NCC#Cc1cc2c(NC3CCN(C[C@H](O)CO)CC3)cccc2n1CC(F)(F)F [Compound 549A, (rac)-4-({3-[4-({1-[2,3-dihydroxypropyl]piperidin-4-yl}amino)-1-(2,2,2-trifluoroethyl)-1H-indol-2-yl]prop-2-yn-1-yl}amino)-3-methoxybenzene-1-sulfonamide]",+ (+ = 0 μM ≤ SC150 < 0.05 μM)
9,COc1cc(S(N)(=O)=O)ccc1NCC#Cc1cc2c(NC3CCN(CCOC(C)=O)CC3)cccc2n1CC(F)(F)F [Compound 618A],+ (+ = 0 μM ≤ SC150 < 0.05 μM)
10,"COCC(CN1CCC(Nc2cccc3c2cc(C#CCNc2ccc(S(N)(=O)=O)cc2OC)n3CC(F)(F)F)CC1)OC(C)=O (stereo not shown) [Compound 619A, 1-methoxy-3-{4-[(2-{3-[(2-methoxy-4-sulfamoylphenyl)amino]prop-1-yn-1-yl}-1-(2,2,2-trifluoroethyl)-1H-indol-4-yl)amino]piperidin-1-yl}propan-2-yl acetate]",+ (+ = 0 μM ≤ SC150 < 0.05 μM)
11,"COc1cc(S(N)(=O)=O)ccc1NCC#Cc1cc2c(NC3CCN(C(C)=O)CC3)cccc2n1CC(F)(F)F [Compound 749A, 4-[(3-{4-[(1-acetylpiperidin-4-yl)amino]-1-(2,2,2-trifluoroethyl)-1H-indol-2-yl}prop-2-yn-1-yl)amino]-3-methoxybenzene-1-sulfonamide]",+ (+ = 0 μM ≤ SC150 < 0.05 μM)
12,"COCC(O)CN1CCC(Nc2cccc3c2cc(C#CCNc2ccc(S(C)(=O)=O)cc2)n3CC(F)(F)F)C1 (stereo not drawn) [Compound 457A, l-{3-[(2-{3-[(4-methanesulfonylphenyl)amino]prop-1-yn-1-yl}-1-(2,2,2-trifluoroethyl)-1H-indol-4-yl)amino]pyrrolidin-1-yl}-3-methoxypropan-2-ol]",++ (++ = 0.05 μM ≤ SC150 < 0.1 μM)
13,"COCC(O)CN1CCC(Nc2cccc3c2cc(C#CCNc2ccc(S(C)(=O)=O)cc2C(F)(F)F)n3CC(F)(F)F)CC1 (stereo not shown) [Compound 708A, 1-(4-{[2-(3-{[4-methanesulfonyl-2-(trifluoromethyl)phenyl]amino}prop-1-yn-1-yl)-1-(2,2,2-trifluoroethyl)-1H-indol-4-yl]amino}piperidin-1-yl)-3-methoxypropan-2-ol]",++ (++ = 0.05 μM ≤ SC150 < 0.1 μM)
14,"COc1cc(C(C)(C)C#N)ncc1NCC#Cc1cc2c(NC3CCOCC3)cccc2n1CC(F)(F)F [Compound 995A, 2-{4-methoxy-5-[(3-{4-[(oxan-4-yl)amino]-1-(2,2,2-trifluoroethyl)-1H-indol-2-yl}prop-2-yn-1-yl)amino]pyridin-2-yl}-2-methylpropanenitrile]",+ (+ = 0 μM ≤ SC150 < 0.05 μM)
15,"CCOc1cc(S(C)(=O)=O)ccc1NCC#Cc1cc2c(N[C@H]3CC[C@@H](N4CC5CC(C4)O5)CC3)cccc2n1CC(F)(F)F [Compound 405A, 2-{3-[(2-ethoxy-4-mcthanesulfonyl-phenyl)amino]prop-1-yn-1-yl}-N-[(1S,4S)-4-{6-oxa-3-azabicyclo[3.1.1]heptan-3-yl}cyclohexyl]-1-(2,2,2-trifluoroethyl)-1H-indol-4-amine]",+ (+ = 0 μM ≤ SC150 < 0.05 μM)
16,"CCC(=O)NS(=O)(=O)c1ccc(NCC#Cc2cc3c(N[C@H]4CC[C@H](N5CC6(COC6)C5)CC4)cccc3n2CC(F)(F)F)c(OC)c1 [Compound 206A, N-(3-methoxy-4-{[3-(4-{[(1R,4R)-4-{2-oxa-6-azaspiro[3.3]heptan-6-yl}cyclo-hexyl]amino}-1-(2,2,2-trifluoroethyl)-1H-indol-2-yl)prop-2-yn-1-yl]amino}benzene-sulfonyl)propanamide]",+ (+ = 0 μM ≤ SC150 < 0.05 μM)
